# Biological target: T1, RM.BpuSI (Bacillus pumilus, UniProt G1K3S1)
# T1 construct: full-length (REase, helical connector, MTase domain, TRD); recombinant in E. coli ER3081, no tag told; treated with substrate DNA to remove SAM
# T1 sequence (G1K3S1 1-878): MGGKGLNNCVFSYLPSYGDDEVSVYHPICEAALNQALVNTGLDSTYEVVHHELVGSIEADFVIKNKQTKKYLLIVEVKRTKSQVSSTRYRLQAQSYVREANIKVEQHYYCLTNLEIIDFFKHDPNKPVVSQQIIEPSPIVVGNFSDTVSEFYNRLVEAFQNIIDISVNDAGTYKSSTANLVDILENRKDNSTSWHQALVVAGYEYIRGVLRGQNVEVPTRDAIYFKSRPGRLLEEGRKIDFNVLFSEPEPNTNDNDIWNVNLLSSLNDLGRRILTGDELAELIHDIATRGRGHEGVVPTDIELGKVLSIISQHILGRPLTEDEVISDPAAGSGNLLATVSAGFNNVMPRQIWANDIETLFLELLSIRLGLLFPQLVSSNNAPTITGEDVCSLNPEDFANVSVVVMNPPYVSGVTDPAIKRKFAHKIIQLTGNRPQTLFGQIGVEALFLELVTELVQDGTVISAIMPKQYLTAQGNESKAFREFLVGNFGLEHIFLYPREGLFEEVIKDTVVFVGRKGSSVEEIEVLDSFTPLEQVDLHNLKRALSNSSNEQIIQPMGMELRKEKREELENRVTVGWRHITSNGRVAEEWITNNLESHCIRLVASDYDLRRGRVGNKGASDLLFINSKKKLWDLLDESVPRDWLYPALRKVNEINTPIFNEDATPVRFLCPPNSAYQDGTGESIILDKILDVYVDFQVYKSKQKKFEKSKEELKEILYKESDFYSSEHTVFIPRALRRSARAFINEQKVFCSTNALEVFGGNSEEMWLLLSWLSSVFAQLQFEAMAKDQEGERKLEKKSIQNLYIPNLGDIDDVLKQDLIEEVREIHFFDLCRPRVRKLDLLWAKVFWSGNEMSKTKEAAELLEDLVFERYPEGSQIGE
# Assay: ANS fluorescence titration
# Assay type: binding
row,Kd,SMILES
1,76.4 ± 18.2 µM,C[S+](CC[C@H](N)C(=O)O)C[C@H]1O[C@@H](n2cnc3c(N)ncnc32)[C@H](O)[C@@H]1O (some centres unmarked) [SAM]
2,71.1 ± 14.2 µM,Nc1ncnc2c1ncn2[C@@H]1O[C@H](C[C@@H](N)CC[C@H](N)C(=O)O)[C@@H](O)[C@H]1O [sinefungin]

# Reference: publication PMC3817140, “The Role of the Methyltransferase Domain of Bifunctional Restriction Enzyme RM.BpuSI in Cleavage Activity” (PLoS ONE, 2013)
